Experimental data reported in patent US7071178B2, “Use of vitamin D-derivatives in the treatment of osteoporosis and related bone disorders, as well as novel vitamin D3-derivatives” (Leo Pharmaceutical Products, Ltd., priority 2000, dated 2006).

Tested on: OVX rats
Assay: OVX rat model on osteoporosis: boneweight
Format: in vivo
Parameters: key to Anabolic effect on boneweight, Tibia, vs 1,25D3 / Anabolic effect on boneweight, Tibial Meta., vs 1,25D3 / Anabolic effect on boneweight, L4, vs 1,25D3 / Anabolic effect on boneweight, Femur, vs 1,25D3: <: less effect than the reference dose of 1,25D3 (0.25 ug/kg); <=: less or the same effect as the reference dose of 1,25D3 (0.25 ug/kg); =: same effect as the reference dose of 1,25D3 (0.25 ug/kg); =>: same or better effect as the reference dose of 1,25D3 (0.25 ug/kg); >: better effect than the reference dose of 1,25D3 (0.25 ug/kg)
Conditions: for Anabolic effect on boneweight, Femur, vs 1,25D3 / Anabolic effect on boneweight, Femur, vs Ovx contr / Anabolic effect on boneweight, L4, vs 1,25D3 / Anabolic effect on boneweight, L4, vs Ovx contr / Anabolic effect on boneweight, Tibia, vs 1,25D3 / Anabolic effect on boneweight, Tibia, vs Ovx contr / Anabolic effect on boneweight, Tibial Meta., vs 1,25D3 / Anabolic effect on boneweight, Tibial Meta., vs Ovx contr: oral 28 days
Text: FIG. 1 is a graphic illustration of the effect on the weight of the lumbal vertebrae, L4, in rats according to the OVX rat model described herein, and wherein the animal groups received treatment according to the scheme below. A statistical analysis is shown below the graphic illustration. Differences between groups were investigated by the Kruskal-Wallis test, including a multiple comparison procedure: ns represents non-significant, nt represents not tested, and * represents p<0.05. Differences were considered significant at a p<0.05. Results are presented in the bar diagram as means+SD.
The animals were divided into 6 groups: • Group 1: Intact control, dosed Propylene glycol 0.1 ml/kg (Vehicle) • Group 2: OVX rats control, dosed Propylene glycol 0.1 ml/kg (Vehicle) • Group 3: OVX rats, dosed 1α,25(OH)2D3, […], dosed Compound 145, […]
Pharmacological Methods—OVX Rat Model on Osteoporosis
To study bone anabolic properties and the effects of the vitamin D analogues of the present invention in preventing or treating demineralisation of the skeleton in vivo, a 4 weeks OVX rat model was used:
An ovariectomized rat model (OVX model), orally dosed for 28 days is useful for screening of vitamin D analogues. In this model ovariectomy produces alterations in the cancellous network identical to those seen in the human skeleton during ageing and the menopause. Besides this the model and the following analyses can be performed under very standardised conditions. 1α,25(OH)2D3 is used as a reference compound.
Female Sprague Dawley rats weighing approximately 130 g (40–45 days old) were purchased from MB, Ejby, Denmark. The animals were fed a commercial diet and allowed free access to food and drinking water. The animals were split into groups receiving differential treatment.
The animals were anaesthetised and ovariectomized through a dorsal incision.
Treatment of OVX animals was started 2 weeks after ovariectomy.
The animals were dosed orally for 28 days. The oral dosage was by gavage 0.1 ml/100 g bodyweight. The bodyweight of each animal was recorded every day prior to oral dosing. On day 7, 14, 21 and 28 the animals were housed separately for 24 hours in metabolic cages for collection of urine. Urine was frozen at −20° C. for later calcium measurement.
Left and right femur, left and right tibia, lumbal vertebrae 3 and 4 (L3 and L4) were removed and cleaned for all soft- and connecting tissue. Left femur, left and right tibia and L4 were dried in an oven at 50–60° C. for at least 24 hours and immediately hereafter weighed. The bones were burned in an oven at 800° C. for 4 hours, dissolved in 1N HCl, and analysed for calcium content in a Hitachi 911 autoanalyser. Right femur and L3 were kept in 0.9% NaCl and frozen at −20° C. for later biomechanical testing performed by Jesper Skovhus Thomsen and Lis Mosekilde at Aarhus University, measuring various biomechanical parameters.
Effect of Compound 145 compared to the reference dose of 1,25(OH)2D3 (1,25D3) (0.25 μg/kg) and compared to the OVX control group (shown in %) are shown in Tables 1 to 4.

C=C1C(=CC=C2CCCC3(C)C2CCC3C(C)CSc2ccc(C(C)(C)O)cc2)CC(O)CC1O [Compound 145, 1(S),3(R)-Dihydroxy-20(R)-(4-((1-hydroxy-1-methyl)ethyl)phenylthiomethyl)-9,10-seco-pregna-5(Z),7(E),10(19)-triene]
Anabolic effect on boneweight, Femur, vs 1,25D3 (1 μg/kg, MTR/16): <= | Anabolic effect on boneweight, Femur, vs Ovx contr (1 μg/kg, MTR/16): 6% | Anabolic effect on boneweight, L4, vs 1,25D3 (1 μg/kg, MTR/16): <= | Anabolic effect on boneweight, L4, vs Ovx contr (1 μg/kg, MTR/16): 9% | Anabolic effect on boneweight, Tibia, vs 1,25D3 (1 μg/kg, MTR/16): <= | Anabolic effect on boneweight, Tibia, vs Ovx contr (1 μg/kg, MTR/16): 6% | Anabolic effect on boneweight, Tibial Meta., vs 1,25D3 (1 μg/kg, MTR/16): < | Anabolic effect on boneweight, Tibial Meta., vs Ovx contr (1 μg/kg, MTR/16): 6% | Anabolic effect on boneweight, Femur, vs 1,25D3 (10 μg/kg, MTR/16): > | Anabolic effect on boneweight, Femur, vs Ovx contr (10 μg/kg, MTR/16): 10% | Anabolic effect on boneweight, L4, vs 1,25D3 (10 μg/kg, MTR/16): > | Anabolic effect on boneweight, L4, vs Ovx contr (10 μg/kg, MTR/16): 13% | Anabolic effect on boneweight, Tibia, vs 1,25D3 (10 μg/kg, MTR/16): > | Anabolic effect on boneweight, Tibia, vs Ovx contr (10 μg/kg, MTR/16): 8% | Anabolic effect on boneweight, Tibial Meta., vs 1,25D3 (10 μg/kg, MTR/16): > | Anabolic effect on boneweight, Tibial Meta., vs Ovx contr (10 μg/kg, MTR/16): 14% | Anabolic effect on boneweight, Femur, vs 1,25D3 (10 μg/kg, MTR/23): >= | Anabolic effect on boneweight, Femur, vs Ovx contr (10 μg/kg, MTR/23): 5% | Anabolic effect on boneweight, L4, vs 1,25D3 (10 μg/kg, MTR/23): >= | Anabolic effect on boneweight, L4, vs Ovx contr (10 μg/kg, MTR/23): 4% | Anabolic effect on boneweight, Tibia, vs 1,25D3 (10 μg/kg, MTR/23): >= | Anabolic effect on boneweight, Tibia, vs Ovx contr (10 μg/kg, MTR/23): 5% | Anabolic effect on boneweight, Tibial Meta., vs 1,25D3 (10 μg/kg, MTR/23): < | Anabolic effect on boneweight, Tibial Meta., vs Ovx contr (10 μg/kg, MTR/23): 8% | Anabolic effect on boneweight, Femur, vs 1,25D3 (25 μg/kg, MTR/27): > | Anabolic effect on boneweight, Femur, vs Ovx contr (25 μg/kg, MTR/27): 4% | Anabolic effect on boneweight, L4, vs 1,25D3 (25 μg/kg, MTR/27): > | Anabolic effect on boneweight, L4, vs Ovx contr (25 μg/kg, MTR/27): 9% | Anabolic effect on boneweight, Tibia, vs 1,25D3 (25 μg/kg, MTR/27): > | Anabolic effect on boneweight, Tibia, vs Ovx contr (25 μg/kg, MTR/27): 3% | Anabolic effect on boneweight, Tibial Meta., vs 1,25D3 (25 μg/kg, MTR/27): > | Anabolic effect on boneweight, Tibial Meta., vs Ovx contr (25 μg/kg, MTR/27): −2% | Anabolic effect on boneweight, Femur, vs 1,25D3 (50 μg/kg, MTR/23): >> | Anabolic effect on boneweight, Femur, vs Ovx contr (50 μg/kg, MTR/23): 14% | Anabolic effect on boneweight, L4, vs 1,25D3 (50 μg/kg, MTR/23): >> | Anabolic effect on boneweight, L4, vs Ovx contr (50 μg/kg, MTR/23): 15% | Anabolic effect on boneweight, Tibia, vs 1,25D3 (50 μg/kg, MTR/23): >> | Anabolic effect on boneweight, Tibia, vs Ovx contr (50 μg/kg, MTR/23): 13% | Anabolic effect on boneweight, Tibial Meta., vs 1,25D3 (50 μg/kg, MTR/23): = | Anabolic effect on boneweight, Tibial Meta., vs Ovx contr (50 μg/kg, MTR/23): 22% | Anabolic effect on boneweight, Femur, vs 1,25D3 (50 μg/kg, MTR/27): > | Anabolic effect on boneweight, Femur, vs Ovx contr (50 μg/kg, MTR/27): 6% | Anabolic effect on boneweight, L4, vs 1,25D3 (50 μg/kg, MTR/27): > | Anabolic effect on boneweight, L4, vs Ovx contr (50 μg/kg, MTR/27): 11% | Anabolic effect on boneweight, Tibia, vs 1,25D3 (50 μg/kg, MTR/27): > | Anabolic effect on boneweight, Tibia, vs Ovx contr (50 μg/kg, MTR/27): 4% | Anabolic effect on boneweight, Tibial Meta., vs 1,25D3 (50 μg/kg, MTR/27): > | Anabolic effect on boneweight, Tibial Meta., vs Ovx contr (50 μg/kg, MTR/27): −1% | Anabolic effect on boneweight, Femur, vs 1,25D3 (75 μg/kg, MTR/27): > | Anabolic effect on boneweight, Femur, vs Ovx contr (75 μg/kg, MTR/27): 8% | Anabolic effect on boneweight, L4, vs 1,25D3 (75 μg/kg, MTR/27): > | Anabolic effect on boneweight, L4, vs Ovx contr (75 μg/kg, MTR/27): 13% | Anabolic effect on boneweight, Tibia, vs 1,25D3 (75 μg/kg, MTR/27): > | Anabolic effect on boneweight, Tibia, vs Ovx contr (75 μg/kg, MTR/27): 7% | Anabolic effect on boneweight, Tibial Meta., vs 1,25D3 (75 μg/kg, MTR/27): >> | Anabolic effect on boneweight, Tibial Meta., vs Ovx contr (75 μg/kg, MTR/27): 9% | Anabolic effect on boneweight, Femur, vs 1,25D3 (100 μg/kg, MTR/23): > | Anabolic effect on boneweight, Femur, vs Ovx contr (100 μg/kg, MTR/23): 9% | Anabolic effect on boneweight, L4, vs 1,25D3 (100 μg/kg, MTR/23): > | Anabolic effect on boneweight, L4, vs Ovx contr (100 μg/kg, MTR/23): 12% | Anabolic effect on boneweight, Tibia, vs 1,25D3 (100 μg/kg, MTR/23): > | Anabolic effect on boneweight, Tibia, vs Ovx contr (100 μg/kg, MTR/23): 7% | Anabolic effect on boneweight, Tibial Meta., vs 1,25D3 (100 μg/kg, MTR/23): = | Anabolic effect on boneweight, Tibial Meta., vs Ovx contr (100 μg/kg, MTR/23): 24% | bone anabolic effects (boneweight, biomechanical strength) compared to 1,25D3 (summary of Tables 1 to 4, FIG. 1 and FIG. 2): comparable to or even better than 1,25D3
